Tests used:
[1] = target: Coagulation factor IX (Homo sapiens) (UniProt P00740); assay: Inhibition of factor 9a at 222 uM after 10 min
[2] = target: Coagulation factor XI (Homo sapiens) (UniProt P03951); assay: Inhibition of factor 11a at 222 uM after 10 min
Sequence of Coagulation factor XI (Homo sapiens) (P03951 19-387 limits assumed): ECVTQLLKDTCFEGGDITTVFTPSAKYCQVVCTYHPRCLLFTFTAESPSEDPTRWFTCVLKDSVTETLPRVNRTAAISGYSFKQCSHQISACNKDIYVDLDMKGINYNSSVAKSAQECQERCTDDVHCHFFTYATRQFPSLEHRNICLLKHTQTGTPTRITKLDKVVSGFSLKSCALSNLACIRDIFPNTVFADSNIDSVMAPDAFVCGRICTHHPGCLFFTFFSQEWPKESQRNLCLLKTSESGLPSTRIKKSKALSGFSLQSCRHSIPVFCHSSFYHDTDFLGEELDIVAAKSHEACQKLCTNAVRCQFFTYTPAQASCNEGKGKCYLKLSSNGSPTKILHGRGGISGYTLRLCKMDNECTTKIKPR
Sequence of Coagulation factor XI (Homo sapiens) (P03951 388-625 limits assumed): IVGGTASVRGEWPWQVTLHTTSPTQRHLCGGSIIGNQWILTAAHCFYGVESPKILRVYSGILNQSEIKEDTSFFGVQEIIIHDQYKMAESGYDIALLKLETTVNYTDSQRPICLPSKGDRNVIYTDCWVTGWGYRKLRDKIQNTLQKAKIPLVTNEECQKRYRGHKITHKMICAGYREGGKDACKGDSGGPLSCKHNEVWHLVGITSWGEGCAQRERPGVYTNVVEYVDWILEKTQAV

Sequence of Coagulation factor IX (Homo sapiens) (P00740 47-191 limits assumed): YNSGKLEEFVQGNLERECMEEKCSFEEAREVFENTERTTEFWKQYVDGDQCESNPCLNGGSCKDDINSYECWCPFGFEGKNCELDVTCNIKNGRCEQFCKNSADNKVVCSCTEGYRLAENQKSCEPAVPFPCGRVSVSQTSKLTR
Sequence of Coagulation factor IX (Homo sapiens) (P00740 227-461 limits assumed): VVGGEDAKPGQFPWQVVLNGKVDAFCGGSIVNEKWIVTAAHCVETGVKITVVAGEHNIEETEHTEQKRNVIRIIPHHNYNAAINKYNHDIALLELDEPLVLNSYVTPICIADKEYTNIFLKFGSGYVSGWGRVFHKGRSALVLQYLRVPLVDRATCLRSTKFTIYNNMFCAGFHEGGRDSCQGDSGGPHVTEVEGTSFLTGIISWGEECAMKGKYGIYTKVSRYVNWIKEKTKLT

| SMILES | inhibition [1] [%] | inhibition [2] [%] |
| --- | --- | --- |
| COC1=C(Br)[C@H](O)[C@@]2(C=C1Br)CC(C(=O)NCCCCCNC(=N)N)=NO2 | < 5 | 30 |
| COC1=C(Br)[C@H](O)[C@@]2(C=C1Br)CC(C(=O)NCCCCNC(=N)N)=NO2 | < 5 | 12 |
| N=C(N)NCCCCCNC(=O)C1=NOC2(C=C(Br)C(=O)C(Br)=C2)C1 | < 5 | 30 |
| N=C(N)NCCCCNC(=O)C1=NOC2(C=C(Br)C(=O)C(Br)=C2)C1 | < 5 | 17 |
| COC1=C(Br)[C@@H](O)[C@]2(C=C1Br)CC(C(=O)NCCc1cnc[nH]1)=NO2 | < 5 | 59 |
| N=C(N)NCCCCNC(=O)/C(Cc1ccc(O)c(Br)c1)=N/O | < 5 | 37 |

Reference: ChEMBL document CHEMBL1152345, “Clavatadines C-E, guanidine alkaloids from the Australian sponge Suberea clavata” (J Nat Prod, 2009)
